In patent US7612107B2, “Treatment and inhibition of disease conditions using flexible heteroarotinoids” (The Board of Regents of the University of Oklahoma, priority 2005, dated 2009):

System: NCI human tumor cell line panel
Assay: SHetA2 cytotoxicity in NCI human tumor cell line panel
Type: cell-based
Procedure: The SHetA2 compound was evaluated in the National Cancer Institute (NCI) human tumor cell line panel by the Developmental Therapeutics Program (DTP). The human tumor cell lines were grown in RPMI 1640 medium containing 5% fetal bovine serum and 2 mM L-glutamine. Cells were inoculated into 96 well microtiter plates at densities ranging from 5,000 to 40,000 cells/well depending on the doubling time of individual cell lines and incubated for 24 h prior to addition of SHetA2. After 24 h, two plates of each cell line were fixed in situ with TCA, to represent a measurement of the cell population for each cell line at the time of drug addition (Tz). Drugs were dissolved in dimethyl sulfoxide (DMSO) and diluted in complete medium containing 50 μg/ml gentamicin, prior to addition to the culture wells. […] […] The absorbance was read on an automated plate reader at a wavelength of 515 nm. Using the seven absorbance measurements (time zero, (Tz), control growth, (C), and test growth in the presence of drug at the five concentration levels (Ti)), the GI50 was calculated from [(Ti−Tz)/(C−Tz)]×100=50. […]

CC1(C)CC(C)(C)c2cc(NC(=S)Nc3ccc([N+](=O)[O-])cc3)ccc2S1 [SHetA2]
percent growth levels (10 and 100 μM SHetA2, majority of cell lines): negative percent growth levels
GI50 values (55 cell lines, 9 cancer types, 48 h): micromolar range
